Biological target: GST-tagged truncated human mutant G2019S LRRK2 (Homo sapiens (Human), UniProt Q5S007, G2019S)
Test: LRRK2 G2019S Km ATP LanthaScreen assay
Assay type: biochemical
Details: G2019S LRRK2, 134 μM ATP (Km ATP), LRRKtide substrate
How it was run: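 Ten-point compound series (highest 9.99 μM in DMSO) preincubated 15 min with 1.25 nM GST-tagged truncated human LRRK2 G2019S, then 90 min reaction at ambient temperature with 134 μM ATP (Km) and fluorescein-labelled LRRKtide, pH 8.5. Phosphorylation read as 520/495 nm emission ratio via Tb-labelled antibody; IC50 from 4P logistic regression.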

GST-tagged truncated human mutant G2019S LRRK2, sequence (Q5S007 970-2527 G2019S): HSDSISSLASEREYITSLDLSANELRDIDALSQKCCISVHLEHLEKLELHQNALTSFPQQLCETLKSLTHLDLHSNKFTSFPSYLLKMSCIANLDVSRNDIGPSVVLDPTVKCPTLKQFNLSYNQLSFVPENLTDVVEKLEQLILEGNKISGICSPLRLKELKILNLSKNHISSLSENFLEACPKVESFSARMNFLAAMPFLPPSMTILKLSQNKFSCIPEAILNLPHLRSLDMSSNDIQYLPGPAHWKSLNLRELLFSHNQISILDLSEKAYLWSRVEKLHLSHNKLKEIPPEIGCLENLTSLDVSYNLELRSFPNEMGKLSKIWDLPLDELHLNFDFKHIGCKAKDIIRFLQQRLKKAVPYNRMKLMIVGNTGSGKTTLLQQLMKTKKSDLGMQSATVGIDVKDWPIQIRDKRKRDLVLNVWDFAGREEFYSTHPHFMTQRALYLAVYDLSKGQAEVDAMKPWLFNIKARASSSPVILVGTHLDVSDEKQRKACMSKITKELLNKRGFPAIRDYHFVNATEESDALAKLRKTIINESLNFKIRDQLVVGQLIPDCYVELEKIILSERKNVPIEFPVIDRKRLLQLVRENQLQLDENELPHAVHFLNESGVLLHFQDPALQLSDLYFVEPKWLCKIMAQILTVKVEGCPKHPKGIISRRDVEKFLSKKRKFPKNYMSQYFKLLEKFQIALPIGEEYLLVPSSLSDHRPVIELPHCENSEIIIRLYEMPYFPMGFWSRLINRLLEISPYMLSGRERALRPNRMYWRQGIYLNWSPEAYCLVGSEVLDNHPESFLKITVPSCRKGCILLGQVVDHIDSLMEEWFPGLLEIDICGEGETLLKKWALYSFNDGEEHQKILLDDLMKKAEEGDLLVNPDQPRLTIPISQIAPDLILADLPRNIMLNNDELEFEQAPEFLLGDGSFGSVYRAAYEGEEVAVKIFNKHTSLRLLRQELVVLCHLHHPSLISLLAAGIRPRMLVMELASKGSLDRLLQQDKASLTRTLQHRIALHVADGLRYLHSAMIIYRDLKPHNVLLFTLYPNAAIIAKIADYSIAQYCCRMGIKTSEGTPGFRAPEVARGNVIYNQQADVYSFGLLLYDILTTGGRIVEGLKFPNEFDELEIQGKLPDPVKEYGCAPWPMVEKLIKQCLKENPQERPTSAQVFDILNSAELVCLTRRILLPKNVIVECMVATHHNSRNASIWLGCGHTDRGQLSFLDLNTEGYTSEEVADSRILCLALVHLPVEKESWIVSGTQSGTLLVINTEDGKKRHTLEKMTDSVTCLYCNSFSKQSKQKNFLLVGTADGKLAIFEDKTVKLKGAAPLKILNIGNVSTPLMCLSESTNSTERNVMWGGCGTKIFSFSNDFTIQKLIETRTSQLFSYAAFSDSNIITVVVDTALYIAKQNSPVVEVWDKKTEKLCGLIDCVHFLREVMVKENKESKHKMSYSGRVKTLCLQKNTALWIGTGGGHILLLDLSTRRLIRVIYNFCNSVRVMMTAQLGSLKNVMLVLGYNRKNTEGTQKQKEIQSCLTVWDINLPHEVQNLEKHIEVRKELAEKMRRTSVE

Compound | LRRK2 pIC50 | IC50 (read-out: LRRK2 pIC50 (converted))
N#CC1CC1c1nn(C2CCC2)c2c1OC[C@@H]1COC[C@H]1Nc1nc(ncc1C(F)(F)F)N2 (single isomer, unassigned) [Ex-2.50, (1R,2R)- or (1S,2S)-2-((10aS,13aS)-3-cyclobutyl-8-(trifluoromethyl)-3,4,10a,11,13a,14-hexahydro-10H,13H-5,9-(azeno)furo[3,4-k]pyrazolo[4,3-b][1]oxa[4,6,10]triazacyclotridecin-1-yl)cyclopropane-1-carbonitrile] | 9.77 | –
O[C@@H]1COCC1n1nc(C2CC2)c2c1OC[C@H]1CC[C@@H]1Nc1nc(ncc1C(F)(F)F)N2 (single isomer, unassigned) [Ex-6.4, (3R,4S)-4-((10aR,12aR)- or (3R,4S)-4-((10aS,12aS)- or (3S,4R)-4-((10aR,12aR)- or (3S,4R)-4-((10aR,12aR)-3-cyclopropyl-8-(trifluoromethyl)-10,10a,11,12,12a,13-hexahydro-5,9-(azeno)cyclobuta[k]pyrazolo[3,4-b][1]oxa[4,6,10]triazacyclotridecin-1 (4H)-yl)tetrahydrofuran-3-ol] | >10.09 | –
Cc1cnc2nc1N[C@H](C)CCOc1c(c(C)nn1C(C)(C)CO)N2 [Ex-8.1, (R)-2-methyl-2-(3,8,11-trimethyl-10,11,12,13-tetrahydro-5,9-(azeno)pyrazolo[3,4-b][1]oxa[4,6,10]triazacyclotridecin-1 (4H)-yl)propan-1-ol] | >10.09 | –
COc1cccc2c1Nc1ncc(C(F)(F)F)c(n1)N[C@H]1COC[C@@H]1CO2 [Ex-15.1] | >10.09 | –
Cc1nn(C(C)(C)C#N)c2c1Nc1ncc(C(F)(F)F)c(n1)N[C@@H]1CCC1CO2 (stereo partly drawn) [Ex-1.1, 2-Methyl-2-((10aR,12aR)-3-methyl-8-(trifluoromethyl)-10,10a,11,12,12a,13-hexahydro-5,9-(azeno)cyclobuta[k]pyrazolo[3,4-b][1]oxa[4,6,10]triazacyclotridecin-1 (4H)-yl)propanenitrile] | >10.09 | –
CC(C)(C#N)c1nn(C2CCC2)c2c1OC[C@H]1CC[C@@H]1Nc1nc(ncc1C(F)(F)F)N2 [Ex-2.52, 2-((10aS,12aS)- or 2-((10aR,12aR)-3-cyclobutyl-8-(trifluoromethyl)-3,4,10,10a,11,12,12a,13-octahydro-5,9-(azeno)cyclobuta[k]pyrazolo[4,3-b][1]oxa[4,6,10]triazacyclotridecin-1-yl)-2-methylpropanenitrile] | 5.96 | –
Cc1nn(C2CCC2)c2c1OC[C@@H]1CC[C@H]1Nc1cc(ncc1Cl)N2 [Ex-13.3, (10aR,12aR)-8-chloro-3-cyclobutyl-1-methyl-3,4,10,10a,11,12,12a,13-octahydro-5,9-(metheno)cyclobuta[k]pyrazolo[4,3-b][1]oxa[4,6,10]triazacyclotridecine] | >10.09 | –
C=CCn1nc(C)c2c1Nc1ncc(C(F)(F)F)c(n1)N[C@@H]1COC[C@H]1CO2 [Ex-5.3, (10aS,13aS)-3-allyl-1-methyl-8-(trifluoromethyl)-3,4,10a,11,13a,14-hexahydro-10H,13H-5,9-(azeno)furo[3,4-k]pyrazolo[4,3-b][1]oxa[4,6,10]triazacyclotridecine] | 7.30 | –
FC(F)(F)c1cnc2nc1NC1CCC1COc1c(C3COC3)nn(C3CCC3)c1N2 [Ex-2.72, (10aR,12aR)- or (10aS,12aS)-3-cyclobutyl-1-(oxetan-3-yl)-8-(trifluoromethyl)-3,4,10,10a,11,12,12a,13-octahydro-5,9-(azeno)cyclobuta[k]pyrazolo[4,3-b][1]oxa[4,6,10]triazacyclotridecine] | >10.09 | –
Cc1nn(C)c2c1OC[C@@H]1CCC(C1)Nc1nc(ncc1C(F)(F)F)N2 [Ex-2.87, (5^1S,5^3R)-1^1,1^3-dimethyl-3^5-(trifluoromethyl)-1^1H-7-oxa-2,4-diaza-3(2,4)-pyrimidina-1(5,4)-pyrazola-5(1,3)-cyclopentanacycloheptaphane] | 6.84 | –
Cc1nn(C)c2c1Nc1ncc(C(F)(F)F)c(n1)N[C@H](C)CCO2 [Ex-1.4, (R)-1,3,11-trimethyl-8-(trifluoromethyl)-1,4,10,11,12,13-hexahydro-5,9-(azeno)pyrazolo[3,4-b][1]oxa[4,6,10]triazacyclotridecine] | 8.93 | –
(R)- or (S)-1-cyclopropyl-3,7-dimethyl-10- (trifluoromethyl)-1,5,6,7,8,14-hexahydro- 9,13-(azeno)pyrazolo[4,3- b][1]oxa[4,6,10]triazacyclotridecine [Ex-2.21] | 9.00 | –
Cc1c2c(nn1C1CC1)Nc1ncc(C(F)(F)F)c(n1)N[C@H](C)CCO2 (single isomer, unassigned) [Ex-17.2, (R)- or (S)-2-cyclopropyl-3,7-dimethyl-10-(trifluoromethyl)-2,5,6,7,8,14-hexahydro-9,13-(azeno)pyrazolo[4,3-b][1]oxa[4,6,10]triazacyclotridecine] | 8.24 | –
Cc1nn(C)c2c1OC[C@H]1COC[C@H]1Nc1nc(ncc1C(F)(F)F)N2 (single isomer, unassigned) [Ex-2.25, (10aS,13aR)- or (10aR,13aS)-1,3-dimethyl-8-(trifluoromethyl)-3,4,10a,11,13a,14-hexahydro-10H,13H-5,9-(azeno)furo[3,4-k]pyrazolo[4,3-b][1]oxa[4,6,10]triazacyclotridecine] | – | 28.2 nM
CC(C)c1nn(C2CS(=O)(=O)C2)c2c1Nc1ncc(C(F)(F)F)c(n1)N[C@@H]1CC[C@H]1CO2 [Ex-10.1, 3-((10aR,12aR)-3-isopropyl-8-(trifluoromethyl)-10,10a,11,12,12a,13-hexahydro-5,9-(azeno)cyclobuta[k]pyrazolo[3,4-b][1]oxa[4,6,10]triazacyclotridecin-1 (4H)-yl) thietane 1,1-dioxide] | >10.09 | –
Cc1nn(C2CCC2)c2c1OC[C@H]1CC[C@H]1Nc1nc(ncc1C(F)(F)F)N2 (single isomer, unassigned) [Ex-2.23, (10aR,12aS)- or (10aS,12aR)-3-cyclobutyl-1-methyl-8-(trifluoromethyl)-3,4,10,10a,11,12,12a,13-octahydro-5,9-(azeno)cyclobuta[k]pyrazolo[4,3-b][1]oxa[4,6,10]triazacyclotridecine] | >10.09 | –
Cc1nn(C2CCC2)c2c1OCC1COCCC1Nc1nc(ncc1C(F)(F)F)N2 [Ex-2.35, (4aR,16aR)- and (4aS,16aS)-12-cyclobutyl-14-methyl-7-(trifluoromethyl)-3,4,4a,5,11,12,16,16a-octahydro-1H-6,10-(azeno)pyrano[4,3-k]pyrazolo[4,3-b][1]oxa[4,6,10]triazacyclotridecine] | 8.56 | –
CC(C)n1nc(CO)c2c1Nc1ncc(C(F)(F)F)c(n1)N[C@@H]1COC[C@H]1CO2 [Ex-6.7, ((10aS,13aS)-3-isopropyl-8-(trifluoromethyl)-3,4,10a,11,13a,14-hexahydro-10H,13H-5,9-(azeno)furo[3,4-k]pyrazolo[4,3-b][1]oxa[4,6,10]triazacyclotridecin-1-yl)methanol] | >10.09 | –
Cc1nn(C2CCC2)c2c1OC1COC[C@H]1CNc1nc(ncc1C(F)(F)F)N2 (stereo partly drawn) [Ex-2.79, (11aR,14aR)-3-cyclobutyl-1-methyl-8-(trifluoromethyl)-3,4,10,11,11a,12,14,14a-octahydro-5,9-(azeno)furo[3,4-1]pyrazolo [4,3-b][1]oxa[4,6,10]triazacyclotridecine (11aS,14aS)-3-cyclobutyl-1-methyl-8-(trifluoromethyl)-3,4,10,11,11a,12,14,14a-octahydro-5,9-(azeno)furo[3,4-1]pyrazolo[4,3-b][1]oxa[4,6,10]triazacyclotridecine] | 6.87 | –
Cn1cc(C2CC2c2nn(C3CCC3)c3c2OC[C@@H]2COC[C@H]2Nc2nc(ncc2C(F)(F)F)N3)cn1 (stereo partly drawn) [Ex-2.70, (10aS,13aS)-3-cyclobutyl-1-((1S,2S)- or (10aS,13aS)-3-cyclobutyl-1-((IR,2R)-2-(1-methyl-1H-pyrazol-4-yl)cyclopropyl)-8-(trifluoromethyl)-3,4,10a,11,13a,14-hexahydro-10H,13H-5,9-(azeno)furo[3,4-k]pyrazolo[4,3-b][1]oxa[4,6,10]triazacyclotridecine] | 9.35 | –
Cc1nn(C2CC2)c2c1OC[C@@H]1COC[C@H]1Nc1nc(ncc1C(F)(F)F)N2 [Ex-5.2, (10aS,13aS)-3-cyclopropyl-1-methyl-8-(trifluoromethyl)-3,4,10a,11,13a,14-hexahydro-10H,13H-5,9-(azeno)furo[3,4-k]pyrazolo[4,3-b][1]oxa[4,6,10]triazacyclotridecine] | 9.46 | –
O[C@@H]1COCC1n1nc(C2CC2)c2c1OC[C@H]1CC[C@@H]1Nc1nc(ncc1C(F)(F)F)N2 (single isomer, unassigned) [Ex-6.2, (3R,4S)-4-((10aR,12aR)- or (3R,4S)-4-((10aS,12aS)- or (3S,4R)-4-((10aR,12aR)- or (3S,4R)-4-((10aR,12aR)-3-cyclopropyl-8-(trifluoromethyl)-10,10a,11,12,12a,13-hexahydro-5,9-(azeno)cyclobuta[k]pyrazolo[3,4-b][1]oxa[4,6,10]triazacyclotridecin-1 (4H)-yl)tetrahydrofuran-3-ol] | >10.09 | –
Cc1nn(C(C)C)c2c1OC[C@@H]1CC[C@H]1Nc1nc(ncc1Cl)N2 [Ex-2.61, (10aR,12aR)-8-chloro-3-isopropyl-1-methyl-3,4,10,10a,11,12,12a,13-octahydro-5,9-(azeno)cyclobuta[k]pyrazolo[4,3-b][1]oxa[4,6,10]triazacyclotridecine] | 9.60 | –
CC(C)(C#N)c1nn(C2CCC2)c2c1OC[C@H]1CC[C@@H]1Nc1nc(ncc1C(F)(F)F)N2 [Ex-2.53, 2-((10aS,12aS)- or 2-((10aR,12aR)-3-cyclobutyl-8-(trifluoromethyl)-3,4,10,10a,11,12,12a,13-octahydro-5,9-(azeno)cyclobuta[k]pyrazolo[4,3-b][1]oxa[4,6,10]triazacyclotridecin-1-yl)-2-methylpropanenitrile] | 9.64 | –

From patent US20250313575A1, “MACROCYCLES AS LRRK2 INHIBITORS, PHARMACEUTICAL COMPOSITIONS, AND USES THEREOF” (Merck Sharp & Dohme LLC, priority 2022, published 2025)
